From publication PMC11938129, “Gravacin as an inhibitor of the auxin transport-activating protein kinase D6PK in Arabidopsis” (Frontiers in Plant Science, 2025) come the findings set out here.

As a reminder, the Kd is the constant that tells how readily two partners part at equilibrium. Low readings indicate a tighter complex, high ones a looser complex.

In test [1] the target is T1, D6PK (His-D6PK) (Arabidopsis thaliana, UniProt Q9FG74).
T1 construct: His-tagged recombinant D6PK, expressed in E. coli BL21 (DE3), Ni-NTA purified
T1 sequence (Q9FG74 1-498): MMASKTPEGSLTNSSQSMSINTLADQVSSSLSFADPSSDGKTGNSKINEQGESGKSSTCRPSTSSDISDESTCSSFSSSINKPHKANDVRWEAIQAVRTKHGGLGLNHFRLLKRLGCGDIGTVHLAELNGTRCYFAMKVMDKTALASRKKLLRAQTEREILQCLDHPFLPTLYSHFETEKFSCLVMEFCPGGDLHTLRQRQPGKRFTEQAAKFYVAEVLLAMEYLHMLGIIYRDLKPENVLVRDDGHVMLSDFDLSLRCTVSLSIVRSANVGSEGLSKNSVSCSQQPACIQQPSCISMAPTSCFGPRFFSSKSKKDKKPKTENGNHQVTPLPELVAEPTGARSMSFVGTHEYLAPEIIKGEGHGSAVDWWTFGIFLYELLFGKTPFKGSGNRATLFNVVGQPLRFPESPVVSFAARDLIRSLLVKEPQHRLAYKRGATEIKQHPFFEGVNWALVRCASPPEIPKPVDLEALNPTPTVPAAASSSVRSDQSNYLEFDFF
Put plainly: in vitro kinase assay, […]ATP autoradiography of His-PIN1-HL phosphorylation. The test is classed as biochemical. The settings on record: partial, dose-dependent inhibition; substrate His-PIN1-HL; 10 mM ATP (so in the source), 10 mM MgCl2, 1 mM DTT, Tris-HCl pH 7.5, 25 °C, 60 min.

For test [2], the target named is T1, D6PK (His-D6PK). Kind of test: surface plasmon resonance (Biacore 8K), steady state affinity model. The test is classed as binding. (In SPR one partner is held on a chip, and binding of the other changes the refractive index at the surface.)

For the compound `O=C(O)C=Cc1ccc(-c2ccc(Cl)c(Cl)c2)o1` [gravacin, 3-(5-[3,4-dichlorophenyl]-2-furyl)-acrylic acid], on D6PK (His-D6PK) [1], the “in vitro kinase assay, [32P]ATP autoradiography of His-PIN1-HL phosphorylation” value is given as “His-D6PK-induced phosphorylation of His-PIN1 was partially suppressed by gravacin in a dose-dependent manner”. At D6PK (His-D6PK) [2], the Kd was approximately 334 µM.
